PMC5344956 (Cancer Chemotherapy and Pharmacology, 2017)

Columns and labels:
[1] = Metabolite profiling of feces (HPLC-radiochromatography); type: in vivo, human; conditions: 0–144 h pool; for % Distribution in matrix: % of fecal TRA
Experimental: One-gram samples of the fecal homogenates were transferred to 50-mL polypropylene tubes, extracted with 4 mL of methanol, and centrifuged (4500g). The resulting residues were extracted three more times (once with 2 mL of methanol and twice with 1 mL of methanol containing 1% formic acid) and centrifuged. All supernatants were combined and evaporated under nitrogen, and the residue was reconstituted with 0.5 mL of methanol, vortexed, sonicated, and centrifuged. A 0.010-mL aliquot of the supernatant was removed for determination of radioactivity, and the remainder of the supernatant was transferred to an HPLC vial and stored at −80 °C.
A Finnigan Surveyor HPLC system (Thermo Fisher Scientific Inc., San Jose, CA, USA), consisting of an LC pump plus an autosampler and a UV–Vis plus detector, was used mostly for profiling (except the post-24-h plasma samples, which were analyzed using a Dionex HPLC system). A Phenomenex® Gemini® C18, 5-μm, 3.0 × 100-mm column (Phenomenex Inc., Torrance, CA, USA) was used along with a C-12 guard column (4 × 2 mm). LC conditions were as follows: solvent A was 10 mM ammonium bicarbonate in water (pH 10.0) and solvent B was 100% methanol and the flow rate was 0.8 mL/min. The following gradient was employed (B%): 0–5 min (20%), 32 min (42%), 33 min (60%), 55 min (70%), 56–60 min (95%), and 62–70 min (20%).
Reconstituted solvent extracts (0.050–0.10 mL) of plasma, urine, or feces were injected onto the HPLC column. The post-column eluate was split after UV detection into two streams (0.64 and 0.16 mL/min). The 0.64-mL stream was diverted to a fraction collector (Gilson FX 204; Gilson Medical Electronics, Middleton, WI, USA) to be collected in 96-well plates at 0.16 min/well (ScintiPlates; PerkinElmer Life Sciences, Shelton, CT, USA), and the 0.16-mL stream was directed to the mass spectrometer. The solvent in the 96-well plates was removed at 40 °C using a Genevac evaporator (Genevac, Inc., Stone Ridge, NY, USA).
The radioactivity counts per minute (CPM) in each well was determined using a MicroBeta scintillation counter (PerkinElmer Life and Analytical Sciences). The resulting CPM vs. time data were processed using Excel (Microsoft Corporation, Seattle, WA, USA). The CPM in each well was background-subtracted (using the average CPM values of the blank region of the HPLC run). Radiochromatographic profiles were obtained by plotting the resulting net CPM values against time after injection. Radioactive peaks in the chromatographic profiles were identified, and the radioactivity in each peak was summed and reported as a percentage of TRA in the HPLC run.

human liver microsomes = test: In vitro metabolism with human liver microsomes and CYP-specific chemical inhibitors (data not shown); type: in vitro ADME; conditions: CYP-specific chemical inhibitors
[2] = Excretion and mass balance in urine and feces; type: in vivo, human; conditions: single oral administration
Description: Six healthy male volunteers, 25–45 years of age, with a mean body weight of 83.3 kg (range 64.5–94.4) and a mean body mass index of 26.9 kg/m^2 (range 20.2–29.9) participated in the study. […] The subject release criterion was defined as follows: the combined urine and fecal radioactivity excretion for two consecutive days should fall below 1% of the dose administered.
Detailed procedures on sample collection, storage, and shipment are described in Online Resource 1. […] Urine and feces collected from each subject were pooled at predose and every 24 h thereafter. Fecal homogenates were prepared by adding water (four times the feces weight) and homogenizing.
(§1) TRA analysis was carried out at ABC Laboratories. The radioactivity in plasma (duplicate per time point) and urine samples (triplicate per time point) was quantitated by direct counting in a Beckman LS6000SC or LS6500 liquid scintillation counter (PerkinElmer Life and Analytical Sciences, Boston, MA, USA). Whole blood (duplicate per time point) and fecal homogenate (triplicate per time point) samples were oxidized, and the resultant ^14CO2 was trapped in Carbosorb (Calgon Carbon Corporation, Pittsburgh, PA, USA) in combination with Permafluor, followed by liquid scintillation counting to determine the radioactivity. Individual samples were counted for 5 min for whole blood and fecal matrices, and 10 min for plasma and urine matrices. Predose blood, plasma, urine, and feces samples served as respective control samples to determine and subtract the background radioactivity in the analysis.
All urine voided was collected and stored in containers at 5±3 °C until the collection interval was completed. Subjects voided in the morning prior to study drug administration.
Multiple collections of urine during each collection interval from each individual subject were pooled. The urine samples from each collection interval were well mixed, accurately weighed, and assessed for its pH. A 100 ml sample from each collection interval from each subject was aliquoted into a separately labeled container to be sent to ABC Laboratories for radioactivity analysis. An approximately 10 ml sample from each collection interval from each subject on day 8 and each day thereafter was used for TRA analysis at Celerion (Lincoln, NE). All urine samples were kept frozen at −80 ± 15 °C.
Stool collections began approximately 24 h prior to drug administration until the end of the postdose sampling period. The 24 h predose samples were used as control samples for the radioactivity analysis and metabolite profiling. Feces were collected daily (24 h collection periods) until subjects were discharged from the clinical research unit.
All fecal samples were collected in polypropylene containers; toilet paper was collected separately. The weight of each sample was recorded. Multiple collections of feces during each collection interval from each individual subject were pooled. The feces samples were thoroughly homogenized with water (4X the weight of the feces). A 100 g sample was aliquoted into a separately labeled container to be sent to ABC Laboratories for radioactivity analysis. An approximately 10 g sample from each collection interval from each subject on day 8 and each day thereafter was used for TRA analysis at Celerion. All fecal homogenate samples were kept frozen at −80 ± 15 °C.

[3] = co-administration of ketoconazole (potent CYP3A4 inhibitor) ref 11; cited from earlier work
[4] = Plasma pharmacokinetics of TRA, ponatinib and metabolites after a single oral 45-mg [14C]ponatinib dose
Experimental: The subject release criterion was defined as follows: the combined urine and fecal radioactivity excretion for two consecutive days should fall below 1% of the dose administered.
Detailed procedures on sample collection, storage, and shipment are described in Online Resource 1. […] Fecal homogenates were prepared by adding water (four times the feces weight) and homogenizing.
as §1
M14 was quantitated using a different LC/MS/MS method (Online Resource 2). The pharmacokinetic analysis was carried out using WinNonlin® v6.4 (Pharsight Corp., Mountain View, CA, USA).
Aliquots of 30 µl of calibration standards, quality controls, and incurred plasma samples were transferred into a 96-well plate. Then 150 µl of ice-cold acetonitrile containing 50 ng/ml of AP30376 (d6-AP24600, internal standard) were added. The 96-well plate was vortexed for 10 min and then centrifuged at 4750 rpm for 20 min at 4°C. 100 µl aliquots of the supernatants were transferred into another 96-well plate and the samples were analyzed by liquid chromatography tandem mass spectrometry.

[5] = male, human, in vivo, po, 45 mg

With `Cc1ccc(C(=O)Nc2ccc(CN3CCN(C)CC3)c(C(F)(F)F)c2)cc1C#Cc1cnc2cccnn12.Cl` [Ponatinib, 3-(imidazo[1,2-b]pyridazin-3-ylethynyl)-4-methyl-N-(4-((4-methylpiperazin-1-yl)methyl)-3-(trifluoromethyl)phenyl)benzamide hydrochloride] as the compound, how does the “% of total radioactive dose” value [1] read?
The value was 20.5/2.8%.

What about the “% Distribution in matrix” value [1] of the same compound?
The value was 23.7/3.2%.

What about the “% Distribution in matrix” value ([1]; listed as ponatinib) of the same compound?
Its value is 23.7%.

And the “% of total radioactive dose” value ([1]; listed as ponatinib)?
Its value is 20.5%.

And the “CYP enzymes that metabolize the compound” value (human liver microsomes)?
The value was “metabolized mostly by CYP3A4 and to a lesser extent by CYP2D6 and CYP2C8”.

What about the “elimination pathway N-demethylation, share of dose” value [2] of the same compound?
Its value is 8.3%.

What about the “elimination pathway hydroxylation, share of dose” value [2] of the same compound?
Its value is 18.0%.

What about the “elimination pathway methylation, share of dose” value [2] of the same compound?
The value was 8.4%.

What about the “elimination pathway amide bond hydrolysis, share of dose” value ([2]; estimated from 81% of urinary TRA and 5.4% of dose in urine) of the same compound?
Its value is 4.4%.

What about the “increase of AUC0–∞ on co-administration of ketoconazole” value [3] of the same compound?
The value was 47%.

What about the “increase of C max on co-administration of ketoconazole” value [3] of the same compound?
Its value is 78%.

And the “plasma level at 144 h postdose” value ([4]; human plasma, 144 h postdose)?
The value was “at or below detectable limits”.

And the AUC(0-t) [4, 5]?
Its AUC(0-t) is 3.48 µM·h.

What about the Tmax [4, 5] of the same compound?
Its Tmax is 5 h.

What about the half-life [4, 5] of the same compound?
Its half-life is 1640 min.

What about the concentration at 144 h ([4]; male, human, plasma, oral, 45 mg) of the same compound?
Its concentration at 144 h is under 2.4 nM.
